How the values were obtained:
[1] = tested on: ob/ob and db/db mice; details: following 8 weeks of administration; cited from earlier work
[2] = target: recombinant human AMPK complex 1 (containing α1β1γ1) (Homo sapiens, UniProt Q13131+Q9Y478); experiment: […] (in vitro AMPK activation assay); assay type: biochemical; details: recombinant human AMPK complex 1 (α1β1γ1); basal activity subtracted; read-out: % Maximum AMP Activation of human AMPK Complex 1
Chain of recombinant human AMPK complex 1 (containing α1β1γ1) (Q13131 whole entry): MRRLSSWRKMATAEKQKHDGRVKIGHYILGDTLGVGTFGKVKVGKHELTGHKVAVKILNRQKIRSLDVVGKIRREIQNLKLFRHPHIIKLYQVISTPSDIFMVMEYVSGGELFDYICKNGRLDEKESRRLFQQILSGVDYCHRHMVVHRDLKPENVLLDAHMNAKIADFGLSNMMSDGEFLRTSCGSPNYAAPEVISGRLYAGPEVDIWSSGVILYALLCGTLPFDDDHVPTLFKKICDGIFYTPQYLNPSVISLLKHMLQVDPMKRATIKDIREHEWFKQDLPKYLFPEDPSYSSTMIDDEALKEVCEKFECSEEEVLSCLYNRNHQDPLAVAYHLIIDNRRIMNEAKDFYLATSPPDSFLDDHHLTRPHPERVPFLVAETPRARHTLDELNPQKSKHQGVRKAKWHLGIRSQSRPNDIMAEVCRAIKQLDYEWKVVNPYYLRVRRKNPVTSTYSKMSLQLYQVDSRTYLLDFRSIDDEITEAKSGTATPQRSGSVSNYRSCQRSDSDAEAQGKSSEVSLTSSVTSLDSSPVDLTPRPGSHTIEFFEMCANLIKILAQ
Chain of recombinant human AMPK complex 1 (containing α1β1γ1) (Q9Y478 whole entry): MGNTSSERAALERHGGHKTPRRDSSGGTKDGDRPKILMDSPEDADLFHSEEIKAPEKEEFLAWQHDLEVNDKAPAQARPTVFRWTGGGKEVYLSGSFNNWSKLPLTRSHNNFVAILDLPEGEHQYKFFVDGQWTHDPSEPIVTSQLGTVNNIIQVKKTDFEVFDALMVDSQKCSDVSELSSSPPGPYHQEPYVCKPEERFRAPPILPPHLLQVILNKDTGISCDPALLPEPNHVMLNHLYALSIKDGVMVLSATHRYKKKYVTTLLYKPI
Chain of recombinant human AMPK complex 1 (containing α1β1γ1) (P54619 whole entry partner): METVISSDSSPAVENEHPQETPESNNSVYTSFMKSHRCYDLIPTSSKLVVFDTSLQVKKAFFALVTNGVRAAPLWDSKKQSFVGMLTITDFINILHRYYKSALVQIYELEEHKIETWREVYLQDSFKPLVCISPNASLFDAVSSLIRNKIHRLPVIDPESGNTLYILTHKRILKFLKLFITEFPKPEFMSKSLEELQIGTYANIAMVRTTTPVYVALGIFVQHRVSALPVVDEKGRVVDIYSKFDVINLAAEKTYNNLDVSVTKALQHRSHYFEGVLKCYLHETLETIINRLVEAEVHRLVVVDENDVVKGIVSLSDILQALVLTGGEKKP

SMILES	blood glucose reduction [1] [%]	Emax [2] [%]
NC(=O)c1ncn([C@@H]2O[C@H](CO)[C@@H](O)[C@H]2O)c1N [AICAR]	35	–
COC(=O)c1cc(Oc2nc3cc(C#Cc4cccc(O)c4)c(Cl)cc3[nH]2)ccc1C [Example 125, 5-[6-Chloro-5-(3-hydroxy-phenylethynyl)-1H-benzoimidazol-2-yloxy]-2-methyl-benzoic acid methyl ester]	–	> 80

Source: US8394969B2, “Cyclic benzimidazole derivatives useful as anti-diabetic agents” (Merck Sharp & Dohme Corp., priority 2008, dated 2013)
